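Values below derive from 48-hour exposures of cells grown in 96-well plates, with endpoints linearly interpolated between the two concentrations bracketing the appropriate inhibition level. The concentration for 50% growth inhibition is given as GI50. At the TGI there is no net growth.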
Tests used:
Assay in all cases: NCI tumour cell line growth inhibition, 48 h
HOP-92 NSCLC = test system: HOP-92 NSCLC
NCI-H226 lung = test system: NCI-H226 lung
A498 renal = test system: A498 renal
SF-539 CNS = test system: SF-539 CNS
MCF7 breast = test system: MCF7 breast
KM12 colon = test system: KM12 colon
MDA-MB-435 = test system: MDA-MB-435
SK-MEL-28 melanoma = test system: SK-MEL-28 melanoma
SR leukemia = test system: SR leukemia
SF-295 CNS = test system: SF-295 CNS
NCI-H23 lung = test system: NCI-H23 lung
A549 NSCLC = test system: A549 NSCLC
OVCAR-8 ovarian = test system: OVCAR-8 ovarian
M14 melanoma = test system: M14 melanoma
NCI-H460 lung = test system: NCI-H460 lung
UACC-257 melanoma = test system: UACC-257 melanoma
NCI-H522 lung = test system: NCI-H522 lung
UACC-62 melanoma = test system: UACC-62 melanoma
IGROV1 ovarian = test system: IGROV1 ovarian
HCT-116 colon = test system: HCT-116 colon
MOLT-4 leukemia = test system: MOLT-4 leukemia
K-562 leukemia = test system: K-562 leukemia
OVCAR-4 ovarian = test system: OVCAR-4 ovarian
MDA-MB-231 breast = test system: MDA-MB-231 breast
NCI/ADR-RES ovarian = test system: NCI/ADR-RES ovarian
HCC-2998 colon = test system: HCC-2998 colon
UO-31 renal = test system: UO-31 renal
COLO 205 colon = test system: COLO 205 colon
OVCAR-3 ovarian = test system: OVCAR-3 ovarian
BT-549 breast = test system: BT-549 breast
HCT-15 colon = test system: HCT-15 colon
SK-OV-3 ovarian = test system: SK-OV-3 ovarian
SNB-19 CNS = test system: SNB-19 CNS
LOX IMVI melanoma = test system: LOX IMVI melanoma
T-47D breast = test system: T-47D breast
786-0 renal = test system: 786-0 renal
SNB-75 CNS = test system: SNB-75 CNS
SK-MEL-5 melanoma = test system: SK-MEL-5 melanoma
MALME-3M melanoma = test system: MALME-3M melanoma
DU-145 prostate = test system: DU-145 prostate
HT29 colon = test system: HT29 colon
HOP-62 NSCLC = test system: HOP-62 NSCLC
SW-620 colon = test system: SW-620 colon
OVCAR-5 ovarian = test system: OVCAR-5 ovarian
RPMI-8226 leukemia = test system: RPMI-8226 leukemia
U251 CNS = test system: U251 CNS
ACHN renal = test system: ACHN renal
SF-268 CNS = test system: SF-268 CNS
RXF 393 renal = test system: RXF 393 renal
SK-MEL-2 melanoma = test system: SK-MEL-2 melanoma
CAKI-1 renal = test system: CAKI-1 renal
HS 578T breast = test system: HS 578T breast
TK-10 renal = test system: TK-10 renal
SN12C renal = test system: SN12C renal
HL-60(TB) leukemia = test system: HL-60(TB) leukemia
PC-3 prostate = test system: PC-3 prostate

O=c1[nH]c2nc(NC3CCOCC3)ncc2cc1Oc1ccc(F)cc1F
GI50 (HOP-92 NSCLC): > 25 µM
TGI (HOP-92 NSCLC): > 25 µM
GI50 (NCI-H226 lung): > 25 µM
TGI (NCI-H226 lung): > 25 µM
GI50 (A498 renal): > 25 µM
TGI (A498 renal): > 25 µM
GI50 (SF-539 CNS): > 25 µM
TGI (SF-539 CNS): > 25 µM
GI50 (MCF7 breast): > 25 µM
TGI (MCF7 breast): > 25 µM
GI50 (KM12 colon): > 25 µM
TGI (KM12 colon): > 25 µM
GI50 (MDA-MB-435): > 25 µM
TGI (MDA-MB-435): > 25 µM
GI50 (SK-MEL-28 melanoma): > 25 µM
TGI (SK-MEL-28 melanoma): > 25 µM
GI50 (SR leukemia): > 25 µM
TGI (SR leukemia): > 25 µM
GI50 (SF-295 CNS): > 25 µM
TGI (SF-295 CNS): > 25 µM
GI50 (NCI-H23 lung): > 25 µM
TGI (NCI-H23 lung): > 25 µM
GI50 (A549 NSCLC): > 25 µM
TGI (A549 NSCLC): > 25 µM
GI50 (OVCAR-8 ovarian): > 25 µM
TGI (OVCAR-8 ovarian): > 25 µM
GI50 (M14 melanoma): > 25 µM
TGI (M14 melanoma): > 25 µM
GI50 (NCI-H460 lung): > 25 µM
TGI (NCI-H460 lung): > 25 µM
GI50 (UACC-257 melanoma): > 25 µM
TGI (UACC-257 melanoma): > 25 µM
GI50 (NCI-H522 lung): > 25 µM
TGI (NCI-H522 lung): > 25 µM
GI50 (UACC-62 melanoma): > 25 µM
TGI (UACC-62 melanoma): > 25 µM
GI50 (IGROV1 ovarian): > 25 µM
TGI (IGROV1 ovarian): > 25 µM
GI50 (HCT-116 colon): > 25 µM
TGI (HCT-116 colon): > 25 µM
GI50 (MOLT-4 leukemia): > 25 µM
TGI (MOLT-4 leukemia): > 25 µM
GI50 (K-562 leukemia): > 25 µM
TGI (K-562 leukemia): > 25 µM
GI50 (OVCAR-4 ovarian): > 25 µM
TGI (OVCAR-4 ovarian): > 25 µM
GI50 (MDA-MB-231 breast): > 25 µM
TGI (MDA-MB-231 breast): > 25 µM
GI50 (NCI/ADR-RES ovarian): > 25 µM
TGI (NCI/ADR-RES ovarian): > 25 µM
GI50 (HCC-2998 colon): > 25 µM
TGI (HCC-2998 colon): > 25 µM
GI50 (UO-31 renal): > 25 µM
TGI (UO-31 renal): > 25 µM
GI50 (COLO 205 colon): > 25 µM
TGI (COLO 205 colon): > 25 µM
GI50 (OVCAR-3 ovarian): > 25 µM
TGI (OVCAR-3 ovarian): > 25 µM
GI50 (BT-549 breast): > 25 µM
TGI (BT-549 breast): > 25 µM
GI50 (HCT-15 colon): > 25 µM
TGI (HCT-15 colon): > 25 µM
GI50 (SK-OV-3 ovarian): > 25 µM
TGI (SK-OV-3 ovarian): > 25 µM
GI50 (SNB-19 CNS): > 25 µM
TGI (SNB-19 CNS): > 25 µM
GI50 (LOX IMVI melanoma): > 25 µM
TGI (LOX IMVI melanoma): > 25 µM
GI50 (T-47D breast): > 25 µM
TGI (T-47D breast): > 25 µM
GI50 (786-0 renal): > 25 µM
TGI (786-0 renal): > 25 µM
GI50 (SNB-75 CNS): > 8.27 µM
TGI (SNB-75 CNS): > 25 µM
GI50 (SK-MEL-5 melanoma): > 25 µM
TGI (SK-MEL-5 melanoma): > 25 µM
GI50 (MALME-3M melanoma): > 25 µM
TGI (MALME-3M melanoma): > 25 µM
GI50 (DU-145 prostate): > 25 µM
TGI (DU-145 prostate): > 25 µM
GI50 (HT29 colon): > 25 µM
TGI (HT29 colon): > 25 µM
GI50 (HOP-62 NSCLC): > 25 µM
TGI (HOP-62 NSCLC): > 25 µM
GI50 (SW-620 colon): > 25 µM
TGI (SW-620 colon): > 25 µM
GI50 (OVCAR-5 ovarian): > 25 µM
TGI (OVCAR-5 ovarian): > 25 µM
GI50 (RPMI-8226 leukemia): > 25 µM
TGI (RPMI-8226 leukemia): > 25 µM
GI50 (U251 CNS): > 25 µM
TGI (U251 CNS): > 25 µM
GI50 (ACHN renal): > 25 µM
TGI (ACHN renal): > 25 µM
GI50 (SF-268 CNS): > 25 µM
TGI (SF-268 CNS): > 25 µM
GI50 (RXF 393 renal): > 25 µM
TGI (RXF 393 renal): > 25 µM
GI50 (SK-MEL-2 melanoma): > 25 µM
TGI (SK-MEL-2 melanoma): > 25 µM
GI50 (CAKI-1 renal): > 25 µM
TGI (CAKI-1 renal): > 25 µM
GI50 (HS 578T breast): > 25 µM
TGI (HS 578T breast): > 25 µM
GI50 (TK-10 renal): > 25 µM
TGI (TK-10 renal): > 25 µM
GI50 (SN12C renal): > 25 µM
TGI (SN12C renal): > 25 µM
GI50 (HL-60(TB) leukemia): > 25 µM
TGI (HL-60(TB) leukemia): > 25 µM
GI50 (PC-3 prostate): > 25 µM
TGI (PC-3 prostate): > 25 µM
